In US4206117A, “Pyridinyl aminoalkyl ethers” (BASF Aktiengesellschaft, priority 1977, dated 1980):

Legend:
[1] = system: Aconitineinduced arrhythmia, rats; experiment: animal or person; format: in vivo, rats (Sprague Dawley); conditions: for ED50 / Emax: Rattus norvegicus, po; for ED50: 1 h, read-out: Effective dose ED 50 (extends the duration of aconitine infusion by 50%); for Emax: read-out: R.M.A. (relative maximum activity); for Maximum action: Prolongation of the duration of aconitine infusion, Δ% / R.M.A. (relative maximum activity): at the highest nontoxic dose; for Maximum action: Prolongation of the duration of aconitine infusion, Δ% / Maximum action: Dose (highest nontoxic dose): oral, rats; for R.A. (relative activity) / R.M.A. (relative maximum activity): quinidine = 1.00
Method: (§1) To determine the anti-arrhythmic activity, the drugs were administered orally to rats (Sprague Dawley, weight from 180 to 240 g) 45 minutes before the start of the narcosis.
(§2) The animals were narcotized with thiobutabartial (100 mg/kg administered intraperitoneally). The arrhythmogenic substance used was aconitine, which was administered by intravenous infusion (at a rate of 0.005 mg/kg.min) 60 minutes after administration of the test substance.
(§3) For a quantitative evaluation of the linear relation between log dose (mg/kg) of the test substances and relative prolongation of the duration of aconitine infusion (Δ%), the dose which extended the duration of infusion by 50% (ED 50) was determined.

[2] = Acute toxicity, intraperitoneal administration; conditions: mouse, in vivo, ip, female Swiss mice, within 24 hours, read-out: Acute toxicity LD 50
Method: (§4) The acute toxicity was determined on groups of 10 or 20 female Swiss mice, weighing 20-26 g, the compounds being administered intraperitoneally.

[3] = Therapeutic range, quotient of LD 50 (mice) and ED 50 (rats); format: in vivo; conditions: in vivo; LD 50 mice i.p. / ED 50 rats oral
Method: as §1
as §2, with “substance. In the case of untreated animals (N=30), arrhythmias occurred after an average of 3.7±0.9 minutes, the commencement of which can be delayed by anti-arrhythmic agents, the delay depending on the dosage.” for “substance.”
as §3, with “determined. The prior art anti-arrhythmic agent quinidine served as a comparative substance.” for “determined.”
as §4

[4] = system: Aconitineinduced arrhythmia, rats; experiment: as above; format: in vivo; conditions: relative to quinidine
Method: as §1
as §2, with “substance. In the case of untreated animals (N=30), arrhythmias occurred after an average of 3.7±0.9 minutes, the commencement of which can be delayed by anti-arrhythmic agents, the delay depending on the dosage.” for “substance.”
as §3, with “determined. The prior art anti-arrhythmic agent quinidine served as a comparative substance.” for “determined.”
as §4

SMILES | ED50 [1] | Emax [1] | Maximum action: Prolongation of the duration of aconitine infusion, Δ% [1] | Maximum action: Dose (highest nontoxic dose) [1] | R.A. (relative activity) [1] | LD50 at 24 h [2] | selectivity ratio [3] | R.M.A. (relative maximum activity) [1] | effect achieved with the maximum dose, times as great as that of quinidine ([1]; relative to quinidine) | anti-arrhythmic action, times more powerful than that of quinidine ([1]; relative to quinidine) | therapeutic range, times as great as that of quinidine [4]
Cc1nc(Cc2ccccc2)c2c(c1OCCN(C)C)COC2.Cl.Cl [Example 1, 4-benzyl-6-methyl-1,3-dihydro-furo[3,4-c]pyridin-7-yl β-dimethylaminoethyl ether bis-hydrochloride] | 31 mg/kg | 138% | 184% | 68.1 mg/kg | 1.36 | ~147 mg/kg | ~4.74 | – | – | – | –
COC(=O)c1c(Cc2ccccc2)nc(C)c(OCCCN(C)C)c1C(=O)OC [Example 18] | 9.82 mg/kg | 222% | 295% | 215 mg/kg | 4.35 | 170 mg/kg | 17.3 | – | – | – | –
CCOC(=O)c1c(Cc2ccccc2)nc(C)c(OCCCN(C)C)c1C(=O)OCC [Example 25] | 15.9 mg/kg | 147% | 195% | 100 mg/kg | 2.67 | 137 mg/kg | 8.62 | – | – | – | –
CCc1nc(Cc2ccccc2)c2c(c1OCCCN(C)C)COC2 [Example 29] | 18.1 mg/kg | 204% | 271% | 215 mg/kg | 2.34 | 104 mg/kg | 5.75 | – | – | – | –
CN(C)CCCOc1c(Cc2ccccc2)nc(Cc2ccccc2)c2c1COC2 [Example 32] | – | – | 319% | 215 mg/kg | 2.84 | – | – | 2.40 | – | – | –
Cc1nc(Cc2ccccc2)c2c(c1OCCCNC(C)C)COC2 [Example 34, 4-benzyl-6-methyl-1,3-dihydro-furo[3,4-c]pyridin-7-yl 3-isopropylaminopropyl ether] | – | – | 457% | 215 mg/kg | 1.46 | – | – | 3.44 | 3.4 times | – | –
CCCN(CCC)CCCOc1c(C)nc(Cc2ccccc2)c2c1COC2 [Example 36] | 21 mg/kg | 165% | 219% | 100 mg/kg | 2.01 | 180 mg/kg | 8.57 | – | – | – | –
Cc1nc(Cc2ccccc2)c2c(c1OCCCN1CCNCC1)COC2 [Example 43] | 28.5 mg/kg | 116% | 154% | 46.4 mg/kg | 1.48 | ~147 mg/kg | ~5.16 | – | 1.2 times | – | –
Cc1nc(Cc2ccccc2)c2c(c1OCCCCNC(C)C)COC2 [Example 47] | – | – | 358% | 100 mg/kg | 7.47 | – | – | 2.69 | – | 7.5 times | 4.1 times
